Test results as given in PubChem BioAssay AID248 (DTP/NCI, 2004).
Where “and” joins values, the source holds several entries; their conditions need not be identical. Equal values may be shown once. Toxic doses and inconclusive results are not listed. Rule as the data show it: active = T/C of 150% or more; inactive = T/C below 125%. Peptide text beside a SMILES is read from it. * marks the point of attachment. Cbz = O=C(OCc1ccccc1)*

Tested on: L1210 leukemia ip in BDF1 mice, survival T/C
Assay: NCI In Vivo Anticancer Drug Screen. Data for tumor model L1210 Leukemia (intraperitoneal) in B6D2F1 (BDF1) mice
Conditions: endpoint: mean survival time, higher = longer survival
Method in brief: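 Mice bearing the transplanted tumor received compound or vehicle. Survival of the treated group was divided by that of the vehicle-treated control group to give the ratio.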

[1] = dose: 100.0 mg/kg/injection, schedule: Q04DX003 (ip), vehicle: Klucel (hydroxypropylcellulose) (HPC)
[2] = dose: 100.0 mg/kg/injection, schedule: Q04DX002 (ip), vehicle: saline with Tween-80
[3] = dose: 100.0 mg/kg/injection, schedule: Q01DX009 (ip), vehicle: Klucel (hydroxypropylcellulose) (HPC)
[4] = dose: 200.0 mg/kg/injection, schedule: Q01DX009 (ip), vehicle: Klucel (hydroxypropylcellulose) (HPC)
[5] = dose: 200.0 mg/kg/injection, schedule: Q04DX003 (ip), vehicle: Klucel (hydroxypropylcellulose) (HPC)
[6] = dose: 400.0 mg/kg/injection, schedule: Q01DX009 (ip), vehicle: Klucel (hydroxypropylcellulose) (HPC)
[7] = dose: 400.0 mg/kg/injection, schedule: Q04DX003 (ip), vehicle: Klucel (hydroxypropylcellulose) (HPC)
[8] = dose: 100.0 mg/kg/injection, schedule: Q01DX009 (ip), vehicle: saline with Tween-80
[9] = dose: 200.0 mg/kg/injection, schedule: Q01DX009 (ip), vehicle: saline with Tween-80

Measured: T/C

CC(=O)Nc1c(OC(C)=O)ccc2cc(Br)ccc12
inactive: dose: 100.0 mg/kg/injection, schedule: Q01DX015 (ip), vehicle: saline 92 % of control | dose: 200.0 mg/kg/injection, schedule: Q01DX015 (ip), vehicle: saline 100 % of control | dose: 400.0 mg/kg/injection, schedule: Q01DX015 (ip), vehicle: saline 92 % of control | dose: 800.0 mg/kg/injection, schedule: Q01DX015 (ip), vehicle: saline 96 % of control

NC(=O)N1CCN(CCCN2c3ccccc3Sc3cc(Cl)ccc32)CC1
inactive: dose: 6.25 mg/kg/injection, schedule: Q01DX009 (ip), vehicle: Klucel (hydroxypropylcellulose) (HPC) 95 % of control | dose: 12.5 mg/kg/injection, schedule: Q01DX009 (ip), vehicle: Klucel (hydroxypropylcellulose) (HPC) 110 % of control | dose: 25.0 mg/kg/injection, schedule: Q01DX009 (ip), vehicle: Klucel (hydroxypropylcellulose) (HPC) 115 % of control | dose: 25.0 mg/kg/injection, schedule: Q04DX003 (ip), vehicle: Klucel (hydroxypropylcellulose) (HPC) 113 % of control | dose: 50.0 mg/kg/injection, schedule: Q04DX003 (ip), vehicle: Klucel (hydroxypropylcellulose) (HPC) 109 % of control | [1] 115 % of control

CN1CCN(C2CCCCc3ccccc32)CC1 (stereo not given)
inactive: dose: 100.0 mg/kg/injection, schedule: Q04DX003 (ip), vehicle: saline with Tween-80 95 % of control

COC(=O)C[CH2][Sn]([Br])([Br])[c]1ccccc1
inactive: [2] 95 % of control

COc1cc(CNC(=O)/C(C)=C/Cl)ccc1O
inactive: dose: 12.5 mg/kg/injection, schedule: Q04DX003 (ip), vehicle: saline with Tween-80 96 % of control | dose: 25.0 mg/kg/injection, schedule: Q04DX003 (ip), vehicle: saline with Tween-80 96 % of control | dose: 50.0 mg/kg/injection, schedule: Q04DX003 (ip), vehicle: saline with Tween-80 103 % of control

COc1ccc(C2NC(=O)N3C(c4ccc(OC)c(OC)c4)NC(=O)N23)cc1OC (stereo not given)
inactive: dose: 100.0 mg/kg/injection, schedule: Q04DX002 (ip), vehicle: gum acacia 98 % of control | dose: 200.0 mg/kg/injection, schedule: Q04DX002 (ip), vehicle: gum acacia 102 % of control | dose: 400.0 mg/kg/injection, schedule: Q04DX002 (ip), vehicle: gum acacia 105 % of control

OC(CBr)c1ccc(Cl)c(Cl)c1 (stereo not given)
inactive: [3] 103 % of control | [1] 97 % of control | [4] 105 % of control | [5] 103 % of control | [6] 97 % of control | [7] 103 % of control

CS(=O)(=O)OCCN(CCOS(C)(=O)=O)c1ccc(N=O)cc1
inactive: dose: 0.08 mg/kg/injection, schedule: Q01DX Z (ip), vehicle: carboxymethylcellulose (CMC) 115 % of control | dose: 0.08 mg/kg/injection, schedule: Q01DX Z (ip), vehicle: saline 117 % of control | dose: 0.16 mg/kg/injection, schedule: Q01DX Z (ip), vehicle: carboxymethylcellulose (CMC) 123 % of control | dose: 0.16 mg/kg/injection, schedule: Q01DX Z (ip), vehicle: saline 122 % of control | dose: 0.63 mg/kg/injection, schedule: Q01DX Z (ip), vehicle: saline 120 % of control | dose: 1.25 mg/kg/injection, schedule: Q01DX Z (ip), vehicle: saline 110 % of control | dose: 1.28 mg/kg/injection, schedule: Q01DX Z (ip), vehicle: carboxymethylcellulose (CMC) 103 % of control | dose: 2.0 mg/kg/injection, schedule: Q01DX001 (ip), vehicle: saline 120 % of control | dose: 4.0 mg/kg/injection, schedule: Q01DX001 (ip), vehicle: saline 121 % of control

CC(NC(=O)C(C)NC(=O)OCc1ccccc1)C(N)=O (stereo not drawn) (Cbz-Ala-Ala-NH2; configuration not given here)
inactive: [8] 88 % of control | [9] 88 % of control | dose: 400.0 mg/kg/injection, schedule: Q01DX009 (ip), vehicle: saline with Tween-80 88 % of control

CCOC(=O)Cn1c2ccccc2c2cc3c(C)nccc3c(C)c21
inactive: dose: 4.69 mg/kg/injection, schedule: Q01DX009 (ip), vehicle: saline with Tween-80 93 % of control | dose: 9.37 mg/kg/injection, schedule: Q01DX009 (ip), vehicle: saline with Tween-80 96 % of control | dose: 9.37 mg/kg/injection, schedule: Q04DX003 (ip), vehicle: saline with Tween-80 96 % of control | dose: 18.75 mg/kg/injection, schedule: Q01DX009 (ip), vehicle: saline with Tween-80 95 % of control | dose: 18.75 mg/kg/injection, schedule: Q04DX003 (ip), vehicle: saline with Tween-80 105 % of control | dose: 37.5 mg/kg/injection, schedule: Q01DX009 (ip), vehicle: saline with Tween-80 95 % of control | dose: 37.5 mg/kg/injection, schedule: Q04DX003 (ip), vehicle: saline with Tween-80 96 % of control | dose: 75.0 mg/kg/injection, schedule: Q01DX009 (ip), vehicle: saline with Tween-80 103 % of control | dose: 75.0 mg/kg/injection, schedule: Q04DX003 (ip), vehicle: saline with Tween-80 105 % of control | dose: 150.0 mg/kg/injection, schedule: Q01DX009 (ip), vehicle: saline with Tween-80 97 % of control | dose: 150.0 mg/kg/injection, schedule: Q04DX003 (ip), vehicle: saline with Tween-80 113 % of control

CC(C)(C)C(=C=C=O)C#N
inactive: dose: 100.0 mg/kg/injection, schedule: Q01DX001 (ip), vehicle: saline with Tween-80 87 % of control | dose: 200.0 mg/kg/injection, schedule: Q01DX001 (ip), vehicle: saline with Tween-80 94 % of control | dose: 400.0 mg/kg/injection, schedule: Q01DX001 (ip), vehicle: saline with Tween-80 87 % of control

CCC(=O)Nc1cc(C(C)C)ccc1C
inactive: [3] 107 % of control | [1] 97 % of control | [4] 110 % of control | [5] 97 % of control | [6] 103 % of control | [7] 104 % of control

CC(=O)NC1C(Nc2ccc(S(=O)(=O)Nc3nccc(C)n3)cc2)OC(CO)C(O)C1O (stereo not given)
inactive: dose: 250.0 mg/kg/injection, schedule: Q01DX Z (ip), vehicle: methylcellulose (MC) 94 % of control | dose: 375.0 mg/kg/injection, schedule: Q01DX Z (ip), vehicle: methylcellulose (MC) 93 % of control | dose: 500.0 mg/kg/injection, schedule: Q01DX Z (ip), vehicle: methylcellulose (MC) 102 % of control

O=[N+]([O-])c1ccc(C=Nc2cccc3ncccc23)s1
inactive: [1] 95 % of control | [5] 93 % of control

CC(=O)c1cc2c(cc1C)OCO2
inactive: dose: 100.0 mg/kg/injection, schedule: Q01DX001 (ip), vehicle: saline 103 % of control | dose: 200.0 mg/kg/injection, schedule: Q01DX001 (ip), vehicle: saline 97 % of control | dose: 400.0 mg/kg/injection, schedule: Q01DX001 (ip), vehicle: saline 101 % of control

O=C1c2ccccc2C(=O)N1CNc1cccc(Cl)c1
inactive: [8] 88 % of control | [2] 102 % of control | [9] 91 % of control | dose: 200.0 mg/kg/injection, schedule: Q04DX002 (ip), vehicle: saline with Tween-80 105 % of control | dose: 400.0 mg/kg/injection, schedule: Q04DX002 (ip), vehicle: saline with Tween-80 97 % of control

CCN(CC)CCN1CC(=O)Nc2cc(Cl)ccc21
inactive: dose: 25.0 mg/kg/injection, schedule: Q04DX003 (ip), vehicle: saline 94 % of control | dose: 50.0 mg/kg/injection, schedule: Q04DX003 (ip), vehicle: saline 99 % of control | dose: 100.0 mg/kg/injection, schedule: Q04DX003 (ip), vehicle: saline 98 % of control and 87 % of control

OC1C2c3ccccc3C(c3ccccc32)C1O (stereo not given)
inactive: dose: 75.0 mg/kg/injection, schedule: Q01DX001 (ip), vehicle: saline 107 % of control | dose: 150.0 mg/kg/injection, schedule: Q01DX001 (ip), vehicle: saline 93 % of control | dose: 300.0 mg/kg/injection, schedule: Q01DX001 (ip), vehicle: saline 99 % of control
